# Values joined by “and” are separate entries in the source; they are usually repeats but may differ in a detail not shown here. Equal entries are not always repeated.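 These data come from cells grown in 96-well plates and exposed to compound for 48 hours at five concentrations. GI50 is the concentration that inhibits growth by half. TGI marks complete inhibition of growth.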
# How the values were obtained:
# Test in all cases: NCI anticancer screen, dose series, 48 h
# 786-0 renal = test system: 786-0 renal
# A549 NSCLC = test system: A549 NSCLC
# DU-145 prostate = test system: DU-145 prostate
# K-562 leukemia = test system: K-562 leukemia
# NCI-H460 lung = test system: NCI-H460 lung
# OVCAR-4 ovarian = test system: OVCAR-4 ovarian
# OVCAR-5 ovarian = test system: OVCAR-5 ovarian
# PC-3 prostate = test system: PC-3 prostate
# RPMI-8226 leukemia = test system: RPMI-8226 leukemia
# SF-539 CNS = test system: SF-539 CNS
# SK-MEL-2 melanoma = test system: SK-MEL-2 melanoma
# SK-MEL-28 melanoma = test system: SK-MEL-28 melanoma
SMILES,TGI (786-0 renal),TGI (A549 NSCLC),TGI (DU-145 prostate),TGI (K-562 leukemia),TGI (NCI-H460 lung),TGI (OVCAR-4 ovarian),TGI (OVCAR-5 ovarian),TGI (PC-3 prostate),TGI (RPMI-8226 leukemia),TGI (SF-539 CNS),TGI (SK-MEL-2 melanoma),TGI (SK-MEL-28 melanoma),GI50 (DU-145 prostate),GI50 (K-562 leukemia),GI50 (NCI-H460 lung),GI50 (SK-MEL-2 melanoma)
N#CCCN(CCC#N)c1ccc(C(N=Nc2ccccc2)=Nc2ccccc2)cc1,> 100 µM,> 100 µM,> 100 µM,> 100 µM,> 100 µM,> 100 µM,> 100 µM,> 100 µM,> 100 µM,> 100 µM,> 100 µM,> 100 µM,,,,
O=[N+]([O-])c1ccc(C2=NOC(c3ccccc3F)N2C23CC4CC(CC(C4)C2)C3)cc1 (stereo unspecified),> 100 µM,> 100 µM,> 100 µM,> 100 µM,> 100 µM,> 100 µM,> 100 µM,> 100 µM,> 100 µM,> 100 µM,> 100 µM,> 100 µM,,,,
COc1ccc(N2C(=O)C3ON(C(C(N)=O)c4ccccc4)C(c4ccc(-c5ccccc5)cc4)C3C2=O)cc1 (stereo unspecified),> 50 µM,> 50 µM,> 50 µM,> 50 µM,> 50 µM,> 50 µM,> 50 µM,> 50 µM,> 50 µM,> 50 µM,> 50 µM,> 50 µM,,,,
CCCCCCOc1ccc(C(=O)NOCc2ccccc2)cc1,> 100 µM,> 100 µM,> 100 µM,> 100 µM,> 100 µM,> 100 µM,> 100 µM,> 100 µM,> 100 µM,> 100 µM,> 100 µM,> 100 µM,,,,
CC1OC(OC2C(O[C@H]3CC[C@@]4(C)[C@@H](CC[C@@H]5[C@@H]4CC[C@]4(C)[C@@H]6[C@H](C[C@@H]54)O[C@]4(CC[C@@H](C)CO4)[C@H]6C)C3)OC(CO)C(OC3OC(CO)C(O)C(OC4OCC(O)C(O)C4O)C3OC3OCC(O)C(O)C3O)C2O)C(O)C(O)C1O (stereo partly specified),3.02 µM,1.05 µM,2.73 µM,> 100 µM,2.23 µM,2.89 µM,2.42 µM,1.8 µM,11.4 µM,1.25 µM,2.27 µM,2.04 µM,,,,
CCOC(=O)CCC(NC(=O)c1ccc(Oc2nc3ccc(C(F)(F)F)cc3nc2-c2ccccc2)cc1)C(=O)OCC (stereo unspecified),32.9 µM,> 100 µM,> 100 µM,> 100 µM,> 100 µM,> 83 µM,> 100 µM,> 100 µM,> 100 µM,> 34.3 µM,> 65.8 µM,> 100 µM,,,,
O=C1C(CN2CCCCC2)CCCC1CN1CCCCC1 (stereo unspecified),22.3 µM and 15 µM,> 100 µM,32.2 µM,15.8 µM and 25.5 µM,> 100 µM,22.2 µM,> 100 µM,29.8 µM,13.1 µM,> 57.5 µM and 47.8 µM,> 100 µM and 48.4 µM,18.4 µM and 31.7 µM,0.059 µM,8.04 µM and 3.15 µM,> 100 µM,> 83.2 µM and 31.9 µM
CON(C)C(C#N)=C(C#N)C#N,,> 10 µM,> 10 µM,> 10 µM,> 10 µM,> 10 µM,> 10 µM,> 10 µM,> 10 µM,> 10 µM,> 10 µM,> 10 µM,,,,
O=[N+]([O-])c1cccc2nc3ccccc3c(NCCc3cccc[n+]3[O-])c12,0.249 µM,< 0.0476 µM,< 0.0277 µM,> 100 µM,0.174 µM,0.212 µM,0.145 µM,1.51 µM,0.0679 µM,0.194 µM,0.528 µM,< 0.01 µM,,,,
COc1ccc(N=C(C)c2ccncc2)cc1,> 100 µM,> 100 µM,> 100 µM,> 100 µM,> 100 µM,> 100 µM,> 100 µM,> 100 µM,> 100 µM,61.4 µM,> 100 µM,> 100 µM,,,,
CC(C)(C)N(Cc1ccc2c(c1)OCO2)C(=O)/C=C\S(=O)c1ccccc1 (stereo unspecified),6.07 µM,18.4 µM,10.2 µM,> 100 µM,16.9 µM,10.7 µM,25.1 µM,9.71 µM,9.54 µM,6.6 µM,9.11 µM,22.8 µM,,,,
CC(C)NC(=O)CN1CCN(C2=CC(=O)c3c(O)ccc(O)c3C2=O)CC1,42.4 µM,35.2 µM,29.7 µM,> 100 µM,29.1 µM,20.3 µM,33.5 µM,> 80.5 µM,> 100 µM,30.5 µM,34.3 µM,31.6 µM,,,,
CC1=C2C(=O)[C@H]3[C@@H](CC=C4C[C@@H](O)CC[C@@]43C)[C@@H]2CC[C@]12O[C@@H]1C[C@H](C)CN[C@H]1[C@H]2C,> 57.5 µM,> 64.2 µM,> 100 µM,> 100 µM,> 65 µM,> 64.5 µM,> 100 µM,> 100 µM,> 100 µM,> 61.6 µM,> 72.5 µM,> 92.1 µM,,,,
Cc1ccc(-c2c(C#N)c(S)n(NS(=O)(=O)c3ccc(C)cc3)c(=O)c2C#N)cc1,> 100 µM,> 100 µM,> 100 µM,> 100 µM,,36.4 µM,67 µM,> 100 µM,> 100 µM,43.2 µM,62.2 µM,61.2 µM,,,,
CC(C)C1(C)N=C(C(F)(F)F)c2cc(C(=O)C(F)(F)F)c3ccccc3c2N1 (stereo unspecified),15.8 µM,23.5 µM,14.1 µM,> 100 µM,14.6 µM,18.9 µM,24.5 µM,6.75 µM,> 27 µM,20.8 µM,6.99 µM,20.8 µM,,,,
CN(NC(=O)CCCl)C1=NCCN1,> 100 µM,> 100 µM,> 100 µM,> 100 µM,> 100 µM,> 100 µM,> 100 µM,> 100 µM,> 100 µM,> 100 µM,> 100 µM,> 100 µM,,,,
COc1cc(CCCOC(=O)/C=C/c2ccc(O)c(O)c2)cc(O)c1O,> 100 µM,> 100 µM,> 100 µM,> 100 µM,> 100 µM,> 100 µM,> 100 µM,> 100 µM,> 100 µM,90.2 µM,> 100 µM,> 100 µM,,,,

# From PubChem BioAssay (NCI)
